The source of these data is the OPERA property sets (Mansouri et al. 2018).

As a reminder, the logP is a log measure of how a compound divides between an organic and an aqueous phase. Read a high logP as higher lipophilicity. The compound `N#CN=[N+]([O-])c1cccc(C#N)c1` displayed a lipophilicity (logP) of 1.15.
Take `N#CN=[N+]([O-])c1cccc2ccccc12`: the logP was determined as 3.17.
Then `CCNc1nonc1N`, with 0.51; and `N#CN=[N+]([O-])c1ccc(Cl)cc1`, with 2.33.
Then `N#C/N=[N+](\[O-])c1cccc(Br)c1`, with 2.56; and `N#CN=[N+]([O-])c1ccccc1`, with 1.87; and `N#C/N=[N+](\[O-])c1ccc([N+](=O)[O-])cc1`, with 1.51.
Then `N#C/N=[N+](\[O-])c1cccc([N+](=O)[O-])c1`, with 1.45; and `Cc1ccc([N+]([O-])=NC#N)cc1`, with 2.39.
`N#CN=[N+]([O-])c1cccc(C(F)(F)F)c1` displayed a logP of 2.52. This logP and that of the compound before are within 0.2 log units of each other.
`N#CN=[N+]([O-])c1cnccn1` registered a logP of 0.1.
For `CN(C)c1ccc(/[N+]([O-])=N/C#N)cc1`, the logP was determined as 2.3.
Then `COc1cccc(/[N+]([O-])=N/C#N)c1`, with 2.24.
With `N#CN=[N+]([O-])c1ccnc2ccccc12`, the logP came out at 2.07.
The compound `Cc1cccc([N+]([O-])=NC#N)c1` displayed a logP of 2.49.
Then `N#C/N=[N+](\[O-])c1ccc(Br)cc1`, with 2.5.
Then `N#CN=[N+]([O-])c1ncccn1`, with -0.13; and `N#CN=[N+]([O-])c1ccc(C#N)cc1`, with 1.18.
The compound `COc1ccc(/[N+]([O-])=N/C#N)cc1` yielded a logP of 2.15.
As for `N#C/N=[N+](\[O-])c1cccc(F)c1`, the logP is 1.85.
Then `N#C/N=[N+](\[O-])c1cccc(Cl)c1`, with 2.4; and `N#C/N=[N+](\[O-])c1ccccn1`, with 0.53; and `N#CN=[N+]([O-])c1ccc(F)cc1`, with 1.8.
The compound `N#CN=[N+]([O-])c1ccc(C(F)(F)F)cc1` showed a logP of 2.47.
